The source of these data is ChEMBL document CHEMBL5500342, “Rational molecular design converting fascaplysin derivatives to potent broad-spectrum inhibitors against bacterial pathogens via targeting FtsZ” (Eur J Med Chem, 2024).

Experiment [1] concerns Escherichia coli. Kind of experiment: Antibacterial activity against penicillin-susceptible Escherichia coli ATCC25922 assessed as log reduction in bacterial count by time kill kinetics assay. Type of experiment: functional.
Experiment [2] deals with Escherichia coli. Kind of experiment: Antibacterial activity against penicillin-susceptible Escherichia coli ATCC25922 assessed as reduction in bacterial growth at 0.5 times of MIC incubated for 18 to 24 hrs and measured after 25 passages by drug resistance assay. Type of experiment: functional, organism-based.
Experiment [3] relates to Cell membrane. Kind of experiment: Disruption of cell membrane integrity in penicillin-susceptible Escherichia coli ATCC25922 assessed as appearance of wrecked cells at 4 times of MIC incubated for 2 hrs by transmission electron microscopic analysis. The class given is cell membranes.
Experiment [4] deals with Cell membrane. Kind of experiment: Disruption of cell membrane integrity in penicillin-susceptible Escherichia coli ATCC25922 assessed as scattered leakage of content at 4 times of MIC incubated for 2 hrs by transmission electron microscopic analysis. Type of experiment: cell membranes.
In experiment [5] the test system is Staphylococcus aureus. Kind of experiment: Inhibition of biofilm formation in methicillin-resistant Staphylococcus aureus ATCC43300 assessed as decrease in biofilm formation rate at 6.25 microg/ml incubated for 24 hrs by crystal violet staining based analysis relative to control. The class given is functional. Further details: scale not given: the % may be the effect or the level left. To be noted: dose 6.25 µg/ml.

Experiment [6] concerns Staphylococcus aureus. Kind of experiment: Inhibition of biofilm formation in methicillin-resistant Staphylococcus aureus ATCC43300 assessed as decrease in biofilm formation rate at higher concentration incubated for 24 hrs by crystal violet staining based analysis relative to control. Type of experiment: functional. Further details: scale not given: the % may be the effect or the level left.

Experiment [7] deals with Staphylococcus aureus. Kind of experiment: Inhibition of biofilm formation in methicillin-resistant Staphylococcus aureus ATCC43300 assessed as decrease in biofilm formation rate at 16 times of MIC incubated for 24 hrs by crystal violet staining based analysis relative to control. The class given is functional. Details: scale not given: the % may be the effect or the level left.

Experiment [8] deals with Escherichia coli. Kind of experiment: Antibacterial activity against penicillin-susceptible Escherichia coli ATCC25922 assessed as reduction in bacterial count incubated for 24 hrs by time kill kinetics assay. The class given is functional, organism-based.
For experiment [9], the system named is Escherichia coli. Kind of experiment: Antibacterial activity against penicillin-susceptible Escherichia coli ATCC25922 assessed as log reduction in bacterial count at 4 times of MIC measured after 24 hrs by time kill kinetics assay. The class given is functional, organism-based.
The subject of experiment [10] is Escherichia coli. Kind of experiment: Antibacterial activity against penicillin-susceptible Escherichia coli ATCC25922 assessed as log reduction in bacterial count at 2 times of MIC measured after 12 hrs by time kill kinetics assay. Type of experiment: functional, organism-based.
Experiment [11] concerns Cell membrane. Kind of experiment: Disruption of cell membrane integrity in methicillin-resistant Staphylococcus aureus ATCC43300 assessed as leakage of intracellular contents at 4 times of MIC incubated for 2 hrs by transmission electron microscopic analysis. The class given is cell membranes.
In experiment [12] the test system is Cell membrane. Kind of experiment: Disruption of cell membrane integrity in methicillin-resistant Staphylococcus aureus ATCC43300 assessed as increase in cellular debris at 4 times of MIC incubated for 2 hrs by transmission electron microscopic analysis. Type of experiment: cell membranes.
The subject of experiment [13] is Staphylococcus aureus. Kind of experiment: Inhibition of biofilm formation in methicillin-resistant Staphylococcus aureus ATCC43300 assessed as decrease in biofilm formation rate at 4 times of MIC incubated for 24 hrs by crystal violet staining based analysis relative to control. Type of experiment: functional. Details: scale not given: the % may be the effect or the level left.

Activity calls are given as the source filed them. No cut-off for these calls is given here.

Regarding `O=C1c2ccccc2-[n+]2ccc3c([nH]c4ccc(-c5ccccc5Cl)cc43)c21.[Cl-]`, the figures for the Activity in experiment [1], in [5] and in experiment [6] were 1 log10CFU/ml, 49% and 15%, respectively. The result in experiment [2], in [3] and in [4] was Active.

Regarding `O=C1c2ccccc2-[n+]2ccc3c([nH]c4ccc(-c5ccccc5F)cc43)c21.[Cl-]`, the Activity in experiment [7] came out at 12%.

Turning to `O=C1c2ccccc2-[n+]2ccc3c([nH]c4ccc(-c5ccccc5C(F)(F)F)cc43)c21.[Cl-]`, the Activity result in [8] was “Dose-Dependent Effect”; in experiment [13], 18%. For the same compound, the outcome in [9], in experiment [11] and in [12] was Active. In addition, the outcome in experiment [10] was inactive.
